From US20250319015A1, “VACCINIUM MACROCARPON EXTRACT AND ANTI-AGEING COSMETIC EFFECTS THEREOF” (SOCIETE INDUSTRIELLE LIMOUSINE D'APPLICATION BIOLOGIQUE, priority 2021, published 2025)

Key:
[1] = tested on: human keratinocytes from older donors (≥60 years); assay: Gene expression by quantitative PCR on older human keratinocytes; type: cell-based; settings: 1 μM Retinol
Experimental: (§1) The procedure of the study is described below. The young and older human cells are seeded and incubated at 37° C. […] After several days, the cells are recovered and the total RNA extracted. The RNAs were reverse-transcribed and the complementary DNAs obtained were analyzed by the quantitative PCR technique. The mRNAs of internal reference controls were analyzed in parallel with the mRNAs of the markers involved in the barrier function of the epidermis, in the DEJ and in the dermal matrix. The incorporation of fluorescence is measured continuously using a thermal cycler. The RQ (relative quantification) analysis is performed using software.

[2] = tested on: healthy Caucasian female volunteers; settings: retinol 0.075%, 18 volunteers
Experimental: This study was carried out on 3 groups of 18 healthy, female volunteers, aged 45 to 66 years and presenting with crow's feet wrinkles. Each of the volunteers applied two of the three formulae to half the face twice-daily in a randomized manner for 42 days.

[3] = tested on: older human fibroblasts by successive replications; assay: Gene expression by quantitative PCR on older human fibroblasts; type: cell-based; settings: 1 μM Retinol
Experimental: as §1

[4] = tested on: MMP-1; assay: MMP-1 level by ELISA on older human fibroblasts subjected to UVA; type: cell-based; settings: UVA-irradiated older fibroblasts, 1 μM Retinol
Experimental: The older human fibroblasts are seeded and incubated at 37° C. in an atmosphere containing 5% CO2. The irradiations are carried out using a UV lamp with UVA intensities of 10 J/cm2.
The cells are then incubated at 37° C. in an atmosphere containing 5% CO2 for 48 hours.

With `CC1=C(/C=C/C(C)=C/C=C/C(C)=C/CO)C(C)(C)CCC1` [Retinol, retinol] the “MKI67: Efficacy of retinol/older control (%)” value [1] was “+44%”, the “S100A7: Efficacy of retinol/older control (%)” value [1] was “+1384%” and the “S100A8: Efficacy of retinol/older control (%)” value [1] was “+23%”. For the same molecule, the “S100A9: Efficacy of retinol/older control (%)” value [1] was “+108%”, the “SOD1: Efficacy of retinol/older control (%)” value [1] was “+7%” and the “TGM1: Efficacy of retinol/older control (%)” value [1] was −31%. The “AQP3 expression (qPCR)” value ([1]; young cells control=100) was 69, the “CD44 expression (qPCR)” value ([1]; young cells control=100) was 147 and the “CLDN1 expression (qPCR)” value ([1]; young cells control=100) was 33. For the same molecule, the “CXCL8 expression (qPCR)” value ([1]; young cells control=100) was 729, the “DSG expression (qPCR)” value ([1]; young cells control=100) was 1 and the “FLG expression (qPCR)” value ([1]; young cells control=100) was 9. For the same molecule, the “HAS3 expression (qPCR)” value ([1]; young cells control=100) was 357, the “IVL expression (qPCR)” value ([1]; young cells control=100) was 120 and the “KRT10 expression (qPCR)” value ([1]; young cells control=100) was 2. For the same molecule, the “LOR expression (qPCR)” value ([1]; young cells control=100) was 1, the “MKI67 expression (qPCR)” value ([1]; young cells control=100) was 95 and the “S100A7 expression (qPCR)” value ([1]; young cells control=100) was 564. For the same molecule, the “S100A8 expression (qPCR)” value ([1]; young cells control=100) was 256, the “S100A9 expression (qPCR)” value ([1]; young cells control=100) was 397 and the “SOD1 expression (qPCR)” value ([1]; young cells control=100) was 95. The “TGM1 expression (qPCR)” value ([1]; young cells control=100) was 47, the “Incident rate of adverse effects” value [2] was 17% and the “Subjects who demonstrated adverse effects likely caused by the study product” value ([2]; 42 days) was “three”. For the same molecule, the “ACAN: Efficacy of retinol/older control (%)” value [3] was −74%, the “AQP3: Efficacy of retinol/older control (%)” value [3] was “+30%” and the “BGN: Efficacy of retinol/older control (%)” value [3] was “+24%”. For the same molecule, the “COL1A1: Efficacy of retinol/older control (%)” value [3] was “+25%”, the “COL3A1: Efficacy of retinol/older control (%)” value [3] was “+67%” and the “CXCL8: Efficacy of retinol/older control (%)” value [3] was “+282%”. For the same molecule, the “DCN: Efficacy of retinol/older control (%)” value [3] was “+7%”, the “ELN: Efficacy of retinol/older control (%)” value [3] was “+5%” and the “FBN1: Efficacy of retinol/older control (%)” value [3] was −1%. For the same molecule, the “HSPG2: Efficacy of retinol/older control (%)” value [3] was “+3%”, the “IL1: Efficacy of retinol/older control (%)” value [3] was “+151%” and the “LUM: Efficacy of retinol/older control (%)” value [3] was −3%. The “MMP1: Efficacy of retinol/older control (%)” value [3] was −24%, the “POSTN: Efficacy of retinol/older control (%)” value [3] was “+24%” and the “TGFβ1: Efficacy of retinol/older control (%)” value [3] was “+8%”. The “VEGFA: Efficacy of retinol/older control (%)” value [3] was “+2%”, the “ACAN expression (qPCR)” value ([3]; young cells control=100) was 10 and the “AQP3 expression (qPCR)” value ([3]; young cells control=100) was 73. For the same molecule, the “BGN expression (qPCR)” value ([3]; young cells control=100) was 78, the “COL1A1 expression (qPCR)” value ([3]; young cells control=100) was 79 and the “COL3A1 expression (qPCR)” value ([3]; young cells control=100) was 72. The “CXCL8 expression (qPCR)” value ([3]; young cells control=100) was 803, the “DCN expression (qPCR)” value ([3]; young cells control=100) was 89 and the “ELN expression (qPCR)” value ([3]; young cells control=100) was 63. For the same molecule, the “FBN1 expression (qPCR)” value ([3]; young cells control=100) was 90, the “HSPG2 expression (qPCR)” value ([3]; young cells control=100) was 90 and the “IL1 expression (qPCR)” value ([3]; young cells control=100) was 567. The “LUM expression (qPCR)” value ([3]; young cells control=100) was 87, the “MMP1 expression (qPCR)” value ([3]; young cells control=100) was 164 and the “POSTN expression (qPCR)” value ([3]; young cells control=100) was 56. The “TGFβ1 expression (qPCR)” value ([3]; young cells control=100) was 103, the “VEGFA expression (qPCR)” value ([3]; young cells control=100) was 93 and the “Ability to reduce the MMP-1 level (%)” value [4] was “+33%”. For the same molecule, the “MMP-1 content (ng/mg proteins)” value ([4]; 48 hours) was 46 ng/mg proteins.
